Where two headings read alike, the source gives them in different places.
How the values were obtained:
Assay in all cases: Test C pre-/postemergence herbicide test
corn = assay type: in vivo, Zea mays; conditions: for Corn plant response rating (crop injury, 0 = no effect, 100 = complete kill) at 62 g/ha / Plant response rating, Corn / Plant response rating (0 = no effect, 100 = complete control), Corn: preemergence; for Corn plant response rating (crop injury, 0 = no effect, 100 = complete kill) at 125 g/ha / Plant response rating (0 = no effect, 100 = complete control), Corn: 125 g ai/ha; for Corn plant response rating (crop injury, 0 = no effect, 100 = complete kill) at 125 g/ha: scale 0 (no effect) to 100 (complete control)
In short: (§1)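 Seeds were planted and sprayed preemergence with test chemicals in a non-phytotoxic solvent mixture containing surfactant; postemergence treatments went onto plants 2 to 18 cm tall (1- to 4-leaf stage). After 12 to 14 days in a greenhouse, injury was rated visually against untreated controls on a 0–100 scale.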

johnsongrass = assay type: in vivo, Sorghum halepense; conditions: for pest or weed control at 62 g/ha / Plant response rating, Johnsongrass / Plant response rating (0 = no effect, 100 = complete control), Johnsongrass: preemergence; for pest or weed control at 125 g/ha / Plant response rating (0 = no effect, 100 = complete control), Johnsongrass: 125 g ai/ha; for pest or weed control at 125 g/ha: scale 0 (no effect) to 100 (complete control)
In short: as §1

giant foxtail = assay type: in vivo, Setaria faberi; conditions: for pest or weed control at 62 g/ha / Plant response rating, Foxtail, Giant / Plant response rating (0 = no effect, 100 = complete control), Foxtail, Giant: preemergence; for pest or weed control at 125 g/ha / Plant response rating (0 = no effect, 100 = complete control), Foxtail, Giant: 125 g ai/ha; for pest or weed control at 125 g/ha: scale 0 (no effect) to 100 (complete control)
In short: as §1

kochia = assay type: in vivo, Kochia scoparia; conditions: for pest or weed control at 62 g/ha / Plant response rating, Kochia / Plant response rating (0 = no effect, 100 = complete control), Kochia: preemergence; for pest or weed control at 125 g/ha / Plant response rating (0 = no effect, 100 = complete control), Kochia: 125 g ai/ha; for pest or weed control at 125 g/ha: scale 0 (no effect) to 100 (complete control)
Excerpt: Seeds of plant species selected from bermudagrass (Cynodon dactylon (L.) Pers.), Surinam grass (Urochloa decumbens (Staph) R. D. Webster, previously named Brachiaria decumbens Stapf), cocklebur (Xanthium strumarium L.), corn (Zea mays L.), large crabgrass (Digitaria sanguinalis (L.) Scop.), woolly cupgrass (Eriochloa villosa (Thunb.) Kunth), giant foxtail (Setaria faberi Herrm.), goosegrass (Eleusine indica (L.) Gaertn.), johnsongrass (Sorghum halepense (L.) Pers.), kochia (Kochia scoparia (L.) Schrad.), lambsquarters (Chenopodium album L.), morningglory (Ipomoea coccinea L.), eastern black nightshade (Solanum ptycanthum Dunal), yellow nutsedge (Cyperus esculentus L.), pigweed (Amaranthus retroflexus L.), common ragweed (Ambrosia elatior L.), soybean (Glycine max (L.) Merr.), common (oilseed) sunflower (Helianthus annuus L.) and velvetleaf (Abutilon theophrasti Medik.) were planted and treated preemergence with test chemicals formulated in a non-phytotoxic solvent mixture which included a surfactant.
At the same time, plants selected from these crop and weed species and also winter barley (Hordeum vulgare L.), blackgrass (Alopecurus myosuroides Huds.), canarygrass (Phalaris minor Retz.), chickweed (Stellaria media (L.) Vill.), downy bromegrass (Bromus tectorum L.), green foxtail (Setaria viridis (L.) Beauv.), Italian ryegrass (Lolium multiflorum Lam.), wheat (Triticum aestivum L.), wild oat (Avenafatua L.) and windgrass (Apera spica-venti (L.) Beauv.) were treated with postemergence applications of some of the test chemicals formulated in the same manner. Plants ranged in height from 2 to 18 cm (1- to 4-leaf stage) for postemergence treatments. Plant species in the flooded paddy test consisted of rice (Oryza sativa), smallflower umbrella sedge (Cyperus difformis L.), ducksalad (Heteranthera limosa (Sw.) Willd.) and barnyardgrass (Echinochloa crus-galli (L.) Beauv.) grown to the 2-leaf stage for testing. Treated plants and controls were maintained in a greenhouse for 12 to 14 days, after which time all species were compared to controls and visually evaluated. Plant response ratings, summarized in Table C, are based on a scale of 0 to 100 where 0 is no effect and 100 is complete control. A dash (-) response means no test result.

common ragweed = assay type: in vivo, Ambrosia elatior; parameters: key to Plant response rating, Ragweed: 0 = no effect, 100 = complete control; conditions: for pest or weed control at 62 g/ha / Plant response rating, Ragweed / Plant response rating (0 = no effect, 100 = complete control), Ragweed: preemergence
In short: as §1

[1] = Preemergence, 500 g ai/ha, scale 0 to 100, 0 no effect, 100 complete control
[2] = Zea mays, pre-emergence, 312 h, 62 g ai/ha, scale 0 to 100
[3] = Zea mays, pre-emergence, 312 h, visual, 12 to 14 days
[4] = Sorghum halepense, pre-emergence, 62 g ai/ha, scale 0 to 100, read-out: Plant response rating, Johnsongrass
[5] = Sorghum halepense, pre-emergence, visual, 12 to 14 days, read-out: Plant response rating, Johnsongrass
[6] = Setaria faberi, pre-emergence, 312 h, 62 g ai/ha, scale 0 to 100, read-out: Plant response rating, Foxtail, Giant
[7] = Setaria faberi, pre-emergence, 312 h, visual, 12 to 14 days, read-out: Plant response rating, Foxtail, Giant
[8] = Bassia scoparia, pre-emergence, 62 g ai/ha, scale 0 to 100, read-out: Plant response rating, Kochia
[9] = Bassia scoparia, pre-emergence, visual, 12 to 14 days, read-out: Plant response rating, Kochia
[10] = Ambrosia artemisiifolia, pre-emergence, 62 g ai/ha, scale 0 to 100, read-out: Plant response rating, Ragweed
[11] = 500 g ai/ha, scale 0 to 100 (0 no effect, 100 complete control), visual, 12 to 14 days

## CCn1nc(C(C)(C)C)cc1C(=O)Nc1cc(C(=O)N(C)C)ccn1 [Compound 156, 2-[[[3-(1,1-dimethylethyl)-1-ethyl-1H-pyrazol-5-yl]carbonyl]amino]-N,N-dimethyl-4-pyridinecarboxamide]
corn; [1]
  Corn plant response rating: 50
corn; [2]
  Corn plant response rating (crop injury, 0 = no effect, 100 = complete kill) at 62 g/ha: 15%
corn; [3]
  Corn plant response rating (crop injury, 0 = no effect, 100 = complete kill) at 125 g/ha: 38%
corn; Zea mays, pre-emergence, 312 h, 250 g ai/ha, scale 0 to 100 (0 no effect, 100 complete control), visual, 12 to 14 days
  Corn plant response rating (crop injury, 0 = no effect, 100 = complete kill) at 250 g/ha: 40%
johnsongrass; [1]
  Johnsongrass plant response rating: 100
johnsongrass; [4]
  pest or weed control at 62 g/ha: 80%
johnsongrass; [5]
  pest or weed control at 125 g/ha: 85%
Giant foxtail; [1]
  Foxtail, Giant plant response rating: 95
Giant foxtail; [6]
  pest or weed control at 62 g/ha: 75%
Giant foxtail; [7]
  pest or weed control at 125 g/ha: 83%
Giant foxtail; Setaria faberi, pre-emergence, 312 h, 250 g ai/ha, scale 0 to 100 (0 no effect, 100 complete control), visual, 12 to 14 days, read-out: Plant response rating, Foxtail, Giant
  pest or weed control at 250 g/ha: 85%
kochia; [8]
  pest or weed control at 62 g/ha: 95%
kochia; [9]
  pest or weed control at 125 g/ha: 95%
kochia; [1]
  Kochia plant response rating: 100
Common ragweed; [10]
  pest or weed control at 62 g/ha: 90%
Common ragweed; Ambrosia artemisiifolia, pre-emergence, 125 g ai/ha, scale 0 (no effect) to 100 (complete control), visual, 12 to 14 days, read-out: Plant response rating, Ragweed
  pest or weed control at 125 g/ha: 100%
Common ragweed; [1]
  Ragweed plant response rating: 100

## CCNC(=O)c1cccc(NC(=O)c2nn(C(C)(C)C)cc2Br)c1 [Compound 221, 4-bromo-1-(1,1-dimethylethyl)-N-[3-[(ethylamino)carbonyl]phenyl]-1H-pyrazole-3-carboxamide]
corn; [2]
  Corn plant response rating (crop injury, 0 = no effect, 100 = complete kill) at 62 g/ha: 0%
corn; [3]
  Corn plant response rating (crop injury, 0 = no effect, 100 = complete kill) at 125 g/ha: 0%
corn; Zea mays, pre-emergence, 312 h, 250 g ai/ha, scale 0-100
  Corn plant response rating (crop injury, 0 = no effect, 100 = complete kill) at 250 g/ha: 0%
corn; Zea mays, pre-emergence, 312 h, 500 g ai/ha, scale 0 to 100 (0 no effect, 100 complete control), visual, 12 to 14 days
  Corn plant response rating (crop injury, 0 = no effect, 100 = complete kill) at 500 g/ha: 10%
johnsongrass; [4]
  pest or weed control at 62 g/ha: 0%
johnsongrass; [5]
  pest or weed control at 125 g/ha: 0%
johnsongrass; Sorghum halepense, pre-emergence, 250 g ai/ha, scale 0-100, read-out: Plant response rating, Johnsongrass
  pest or weed control at 250 g/ha: 10%
johnsongrass; Sorghum halepense, pre-emergence, 500 g ai/ha, scale 0 to 100 (0 no effect, 100 complete control), visual, 12 to 14 days, read-out: Plant response rating, Johnsongrass
  pest or weed control at 500 g/ha: 80%
Giant foxtail; [6]
  pest or weed control at 62 g/ha: 0%
Giant foxtail; [7]
  pest or weed control at 125 g/ha: 0%
Giant foxtail; Setaria faberi, pre-emergence, 312 h, 250 g ai/ha, scale 0-100, read-out: Plant response rating, Foxtail, Giant
  pest or weed control at 250 g/ha: 40%
Giant foxtail; Setaria faberi, pre-emergence, 312 h, 500 g ai/ha, scale 0 to 100 (0 no effect, 100 complete control), visual, 12 to 14 days, read-out: Plant response rating, Foxtail, Giant
  pest or weed control at 500 g/ha: 90%
kochia; [8]
  pest or weed control at 62 g/ha: 0%
kochia; [9]
  pest or weed control at 125 g/ha: 0%
kochia; Bassia scoparia, pre-emergence, 250 g ai/ha, scale 0-100, read-out: Plant response rating, Kochia
  pest or weed control at 250 g/ha: 65%
kochia; Bassia scoparia, pre-emergence, 500 g ai/ha, scale 0 to 100 (0 no effect, 100 complete control), visual, 12 to 14 days, read-out: Plant response rating, Kochia
  pest or weed control at 500 g/ha: 100%
Common ragweed; [10]
  pest or weed control at 62 g/ha: 0%
Common ragweed; Ambrosia artemisiifolia, pre-emergence, 500 g ai/ha, scale 0 to 100 (0 no effect, 100 complete control), visual, 12 to 14 days, read-out: Plant response rating, Ragweed
  pest or weed control at 500 g/ha: 60%

## Cc1nn(C(C)(C)C)nc1C(=O)Nc1cccc(C(=S)N(C)C)c1 [Compound 419]
corn; 62 g ai/ha, scale 0 to 100
  Plant response rating, Corn: 0
corn
  Plant response rating (0 = no effect, 100 = complete control), Corn: 0
corn; 250 g ai/ha, scale 0-100
  Plant response rating, Corn: 0
corn; [11]
  Plant response rating, Corn: 40
johnsongrass; 62 g ai/ha, scale 0 to 100
  Plant response rating, Johnsongrass: 100
johnsongrass
  Plant response rating (0 = no effect, 100 = complete control), Johnsongrass: 100
johnsongrass; 250 g ai/ha, scale 0-100
  Plant response rating, Johnsongrass: 100
johnsongrass; [11]
  Plant response rating, Johnsongrass: 100
Giant foxtail; 62 g ai/ha, scale 0 to 100
  Plant response rating, Foxtail, Giant: 75
Giant foxtail
  Plant response rating (0 = no effect, 100 = complete control), Foxtail, Giant: 85
Giant foxtail; 250 g ai/ha, scale 0-100
  Plant response rating, Foxtail, Giant: 95
Giant foxtail; [11]
  Plant response rating, Foxtail, Giant: 100
kochia; 62 g ai/ha, scale 0 to 100
  Plant response rating, Kochia: 90
kochia
  Plant response rating (0 = no effect, 100 = complete control), Kochia: 95
kochia; 250 g ai/ha, scale 0-100
  Plant response rating, Kochia: 100
kochia; [11]
  Plant response rating, Kochia: 100
Common ragweed; 62 g ai/ha, scale 0 to 100
  Plant response rating, Ragweed: 10
Common ragweed; 125 g ai/ha
  Plant response rating (0 = no effect, 100 = complete control), Ragweed: 15
Common ragweed; [11]
  Plant response rating, Ragweed: 100

## CCNC(=S)c1cccc(NC(=O)c2nn(C(C)(C)C)nc2C)c1 [Compound 420]
corn; 62 g ai/ha, scale 0 to 100
  Plant response rating, Corn: 0
corn
  Plant response rating (0 = no effect, 100 = complete control), Corn: 0
corn; 250 g ai/ha, scale 0-100
  Plant response rating, Corn: 10
corn; [11]
  Plant response rating, Corn: 40
johnsongrass; 62 g ai/ha, scale 0 to 100
  Plant response rating, Johnsongrass: 100
johnsongrass
  Plant response rating (0 = no effect, 100 = complete control), Johnsongrass: 100
johnsongrass; 250 g ai/ha, scale 0-100
  Plant response rating, Johnsongrass: 100
johnsongrass; [11]
  Plant response rating, Johnsongrass: 100
Giant foxtail; 62 g ai/ha, scale 0 to 100
  Plant response rating, Foxtail, Giant: 20
Giant foxtail
  Plant response rating (0 = no effect, 100 = complete control), Foxtail, Giant: 90
Giant foxtail; 250 g ai/ha, scale 0-100
  Plant response rating, Foxtail, Giant: 100
Giant foxtail; [11]
  Plant response rating, Foxtail, Giant: 100
kochia; 62 g ai/ha, scale 0 to 100
  Plant response rating, Kochia: 70
kochia
  Plant response rating (0 = no effect, 100 = complete control), Kochia: 85
kochia; 250 g ai/ha, scale 0-100
  Plant response rating, Kochia: 100
kochia; [11]
  Plant response rating, Kochia: 100
Common ragweed; 62 g ai/ha, scale 0 to 100
  Plant response rating, Ragweed: 0
Common ragweed; 125 g ai/ha
  Plant response rating (0 = no effect, 100 = complete control), Ragweed: 55
Common ragweed; [11]
  Plant response rating, Ragweed: 85

From patent US20060069132A1, “Azolecarboxamide herbicides” (priority 2004, published 2006)
